Reference: patent US12077503B2, “Substituted cyclic amides and their use as herbicides” (FMC CORPORATION, priority 2015, dated 2024)

Legend:
Type in all cases: in vivo
[1] = tested on: giant foxtail (Setaria faberi); assay: Test G Post-Emergence Protocol; settings: Setaria faberi, post-emergence, 312 h
Method in brief: (§1)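 Pot-grown seedlings, 8 days old, raised in a glasshouse at 24/16 °C day/night with 14 h light and 65% humidity, were sprayed post-emergence with test compound in acetone/water (50:50) plus 0.5% Tween 20 at 15.625, 62.5 or 250 g/ha. Damage was scored visually 13 days later on a 0–100 scale (100 = total damage).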

[2] = tested on: barnyardgrass (Echinochloa crus-galli); assay: Test G Post-Emergence Protocol; settings: Echinochloa crus-galli, post-emergence, 312 h
Method in brief: as §1

[3] = tested on: redroot pigweed (Amaranthus retroflexus); assay: Test G Post-Emergence Protocol; settings: Amaranthus retroflexus, post-emergence, 312 h
Method in brief: as §1

[4] = tested on: ivy-leaved morning glory (Ipomoea hederacea); assay: Test G Post-Emergence Protocol; settings: Ipomoea, post-emergence, 312 h
Method in brief: as §1

[5] = tested on: velvetleaf (Abutilon theophrasti); assay: Test G Post-Emergence Protocol; settings: Abutilon theophrasti, post-emergence, 312 h
Method in brief: as §1

corn (Zea mays) [6] = assay: Test G Post-Emergence Protocol; settings: Zea mays, post-emergence, 312 h
Method in brief: as §1

[7] = tested on: giant foxtail (Setaria faberi); assay: Test G Pre-Emergence Protocol; settings: Setaria faberi, pre-emergence, 312 h, evaluated after 13 days
Method in brief: (§2)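 Pots of seeds in standard soil were grown for one day in a glasshouse (24/16 °C day/night, 14 h light, 65% humidity), then sprayed with compound in acetone/water 50:50 with 0.5% Tween 20 at 15.625, 62.5 or 250 g/ha. Damage was scored after 13 days on a 0 (none) to 100 (total) scale.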

[8] = tested on: barnyardgrass (Echinochloa crus-galli); assay: Test G Pre-Emergence Protocol; settings: Echinochloa crus-galli, pre-emergence, 312 h, evaluated after 13 days
Method in brief: as §2

[9] = tested on: redroot pigweed (Amaranthus retroflexus); assay: Test G Pre-Emergence Protocol; settings: Amaranthus retroflexus, pre-emergence, 312 h, evaluated after 13 days
Method in brief: as §2

[10] = tested on: ivy-leaved morning glory (Ipomoea hederacea); assay: Test G Pre-Emergence Protocol; settings: Ipomoea, pre-emergence, 312 h, evaluated after 13 days
Method in brief: as §2

[11] = tested on: velvetleaf (Abutilon theophrasti); assay: Test G Pre-Emergence Protocol; settings: Abutilon theophrasti, pre-emergence, 312 h, evaluated after 13 days
Method in brief: as §2

corn (Zea mays) [12] = assay: Test G Pre-Emergence Protocol; settings: Zea mays, pre-emergence, 312 h, evaluated after 13 days
Method in brief: as §2

CN1C[C@@H](c2ccc(C(F)(F)F)cc2)[C@H](C(=O)Nc2nn[nH]n2)C1=O (racemic) [Compound 1612]
0%: pest or weed control at 15.625 g/ha ([1]; 15.625 g ai/ha, evaluated after 13 days (100=total damage to plant; 0=no damage to plant), read-out: Foxtail, Giant damage rating) | pest or weed control at 62.5 g/ha ([1]; 62.5 g ai/ha, evaluated after 13 days, read-out: Foxtail, Giant damage rating (100=total damage to plant; 0=no damage to plant)) | pest or weed control at 250 g/ha ([1]; 250 g ai/ha, evaluated after 13 days, read-out: damage to plant, Foxtail, Giant (100=total damage to plant; 0=no damage to plant)) | pest or weed control at 15.625 g/ha ([2]; 15.625 g ai/ha, evaluated after 13 days (100=total damage to plant; 0=no damage to plant), read-out: Barnyardgrass damage rating) | pest or weed control at 62.5 g/ha ([2]; 62.5 g ai/ha, evaluated after 13 days, read-out: Barnyardgrass damage rating (100=total damage to plant; 0=no damage to plant)) | pest or weed control at 250 g/ha ([2]; 250 g ai/ha, evaluated after 13 days, read-out: damage to plant, Barnyardgrass (100=total damage to plant; 0=no damage to plant)) | pest or weed control at 15.625 g/ha ([3]; 15.625 g ai/ha, evaluated after 13 days (100=total damage to plant; 0=no damage to plant), read-out: Pigweed, Redroot damage rating) | pest or weed control at 62.5 g/ha ([3]; 62.5 g ai/ha, evaluated after 13 days, read-out: Pigweed, Redroot damage rating (100=total damage to plant; 0=no damage to plant)) | pest or weed control at 250 g/ha ([3]; 250 g ai/ha, evaluated after 13 days, read-out: damage to plant, Pigweed, Redroot (100=total damage to plant; 0=no damage to plant)) | pest or weed control at 15.625 g/ha ([4]; 15.625 g ai/ha, evaluated after 13 days (100=total damage to plant; 0=no damage to plant), read-out: Morningglory, Ivy-leaved damage rating) | pest or weed control at 62.5 g/ha ([4]; 62.5 g ai/ha, evaluated after 13 days, read-out: Morningglory, Ivy-leaved damage rating (100=total damage to plant; 0=no damage to plant)) | pest or weed control at 250 g/ha ([4]; 250 g ai/ha, evaluated after 13 days, read-out: damage to plant, Morningglory, Ivy-leaved (100=total damage to plant; 0=no damage to plant)) | pest or weed control at 15.625 g/ha ([5]; 15.625 g ai/ha, evaluated after 13 days (100=total damage to plant; 0=no damage to plant), read-out: Velvetleaf damage rating) | pest or weed control at 62.5 g/ha ([5]; 62.5 g ai/ha, evaluated after 13 days, read-out: Velvetleaf damage rating (100=total damage to plant; 0=no damage to plant)) | pest or weed control at 250 g/ha ([5]; 250 g ai/ha, evaluated after 13 days, read-out: damage to plant, Velvetleaf (100=total damage to plant; 0=no damage to plant)) | plant injury at 15.625 g/ha (corn (Zea mays) [6]; 15.625 g ai/ha, evaluated after 13 days (100=total damage to plant; 0=no damage to plant), read-out: Corn damage rating) | plant injury at 62.5 g/ha (corn (Zea mays) [6]; 62.5 g ai/ha, evaluated after 13 days, read-out: Corn damage rating (100=total damage to plant; 0=no damage to plant)) | plant injury at 250 g/ha (corn (Zea mays) [6]; 250 g ai/ha, evaluated after 13 days, read-out: damage to plant, Corn (100=total damage to plant; 0=no damage to plant)) | pest or weed control at 15.625 g/ha ([7]; 15.625 g ai/ha, read-out: Foxtail, Giant damage rating (100=total damage to plant; 0=no damage to plant)) | pest or weed control at 62.5 g/ha ([7]; 62.5 g ai/ha, 100=total damage to plant, 0=no damage to plant, read-out: plant damage rating, Foxtail, Giant) | pest or weed control at 250 g/ha ([7]; 250 g ai/ha, read-out: Foxtail, Giant damage rating (100=total damage to plant; 0=no damage to plant)) | pest or weed control at 15.625 g/ha ([8]; 15.625 g ai/ha, read-out: Barnyard grass damage rating (100=total damage to plant; 0=no damage to plant)) | pest or weed control at 62.5 g/ha ([8]; 62.5 g ai/ha, 100=total damage to plant, 0=no damage to plant, read-out: plant damage rating, Barnyardgrass) | pest or weed control at 250 g/ha ([8]; 250 g ai/ha, read-out: Barnyardgrass damage rating (100=total damage to plant; 0=no damage to plant)) | pest or weed control at 15.625 g/ha ([9]; 15.625 g ai/ha, read-out: Pigweed, Redroot damage rating (100=total damage to plant; 0=no damage to plant)) | pest or weed control at 62.5 g/ha ([9]; 62.5 g ai/ha, 100=total damage to plant, 0=no damage to plant, read-out: plant damage rating, Pigweed, Redroot) | pest or weed control at 250 g/ha ([9]; 250 g ai/ha, read-out: Pigweed, Redroot damage rating (100=total damage to plant; 0=no damage to plant)) | pest or weed control at 15.625 g/ha ([10]; 15.625 g ai/ha, read-out: Morning-glory, Ivy-leaved damage rating (100=total damage to plant; 0=no damage to plant)) | pest or weed control at 62.5 g/ha ([10]; 62.5 g ai/ha, 100=total damage to plant, 0=no damage to plant, read-out: plant damage rating, Morningglory, Ivy-leaved) | pest or weed control at 250 g/ha ([10]; 250 g ai/ha, read-out: Morningglory, Ivy-leaved damage rating (100=total damage to plant; 0=no damage to plant)) | pest or weed control at 15.625 g/ha ([11]; 15.625 g ai/ha, read-out: Velvetleaf damage rating (100=total damage to plant; 0=no damage to plant)) | pest or weed control at 62.5 g/ha ([11]; 62.5 g ai/ha, 100=total damage to plant, 0=no damage to plant, read-out: plant damage rating, Velvetleaf) | pest or weed control at 250 g/ha ([11]; 250 g ai/ha, read-out: Velvetleaf damage rating (100=total damage to plant; 0=no damage to plant)) | plant injury at 15.625 g/ha (corn (Zea mays) [12]; 15.625 g ai/ha, read-out: Corn damage rating (100=total damage to plant; 0=no damage to plant)) | plant injury at 62.5 g/ha (corn (Zea mays) [12]; 62.5 g ai/ha, 100=total damage to plant, 0=no damage to plant, read-out: plant damage rating, Corn) | plant injury at 250 g/ha (corn (Zea mays) [12]; 250 g ai/ha, read-out: Corn damage rating (100=total damage to plant; 0=no damage to plant))
